# In patent US20050069587A1, “Novel drug compositions and dosage forms of topiramate” (priority 2003, published 2005):
# Read-outs that look alike come from different tables or passages of the source.
# Columns and labels:
# [1] = room temperature; cited from earlier work
# [2] = cited from earlier work
# [3] = solubility of topiramate in de-ionized water and aqueous surfactant solutions; format: physicochemical; settings: for solubility: water, thermodynamic from solid
# Protocol: As defined herein, the solubility of a pharmaceutical agent is determined by adding the pharmaceutical agent to stirred or agitated de-ionized water maintained in a constant temperature bath at a temperature of 37° C. until no more pharmaceutical agent dissolves. The resulting solution saturated with the pharmaceutical agent is then filtered, typically under pressure through a 0.8-micron Millipore filter, and the concentration of the pharmaceutical agent in the solution is measured by any appropriate analytical method including gravimetric, ultraviolet spectrophometry, chromatography, and the like. The solubility of the pharmaceutical agent is measured at equilibrium.
# A drug composition of the present invention was prepared as follows. Aqueous solutions of five surfactants were prepared. The selected surfactants were four grades of ethylene oxide/propylene oxide/ethylene oxide (LUTROL grades F127, F87, F 108, and F68) and PEG-40 stearate (MYRJ 52). Solutions were made at concentrations of 1, 5, and 15 weight percent. The aqueous surfactant blends solutions were chilled as necessary to promote complete dissolution of the surfactant prior to drug solubility studies.
# The aqueous surfactant solutions were equilibrated to constant temperature in a 37° C. water bath. Then, neat topiramate drug was added slowly with stirring in approximately 10 mg increments to the surfactant solutions until no more drug dissolved. A control sample of drug dissolved in de-ionized water without surfactant was included for comparison purposes. The resulting saturated solutions of drug were filtered through 0.8 micron filters and analyzed for drug concentration by refractive index chromatography. The resulting solubility values were plotted as a function of both surfactant concentration and the hydrophilic-lipophilic balance value of each surfactant. FIG. 6 was constructed from the solubility values obtained and HLB data for each surfactant utilized.
smiles,measurement,setting,value
"CC1(C)O[C@@H]2[C@@H](CO[C@@]3(COS(N)(=O)=O)OC(C)(C)O[C@@H]23)O1 [topiramate, 2,3:4,5-bis-O-(1-methylethylidene)-β-D-fructopyranose sulfamate]",solubility of topiramate in water,[1],about 9.8 mg/ml
same,mean elimination half life,[2]; in vivo,about 21 hours
same,time to peak plasma drug concentrations,[2]; oral administration of an immediate release dosage form,approximately 2 hours
same,drug solubility in the presence of each surfactant compared to the control,"[3]; LUTROL F127, F87, F108, F68, MYRJ 52 at 1, 5, 15 weight percent, 37° C.",higher
same,solubility,"[3]; de-ionized water without surfactant, 37° C., read-out: solubility in de-ionized water without surfactant (control)",13 mg/mL
same,solubility,"[3]; de-ionized water, 37 °C, read-out: solubility in de-ionized water",~12 mg/mL
same,solubility,"[3]; neat drug, stated range, read-out: solubility of neat topiramate",9.8 to 13 mg/mL
